# Read-outs that look alike come from different tables or passages of the source.
# Key:
# Format in all cases: cell-based
# Strep. pyog. C 203 = test: MIC in vitro, Strep. pyog. C 203
# Entero. aerogenes = test: MIC in vitro, Entero. aerogenes; conditions: Klebsiella aerogenes
# S. aureus HH 127 = test: MIC in vitro, S. aureus HH 127; conditions: Staphylococcus aureus, HH127
# Strep. faecalis HH 34358 = test: MIC in vitro, Strep. faecalis HH 34358; conditions: Enterococcus faecalis, HH34358
# K. pneumo. SK 4200 = test: MIC in vitro, K. pneumo. SK 4200
# E. coli. HH 33779 = test: MIC in vitro, E. coli HH 33779; conditions: Escherichia coli
# Pseudomonas sp. HH 63 = test: MIC in vitro, Pseudomonas sp. HH 63; conditions: SP.HH63
# [1] = E. coli. HH 33779, read-out: MIC
MIC (Strep. pyog. C 203),MIC (Entero. aerogenes),MIC (S. aureus HH 127),MIC (Strep. faecalis HH 34358),MIC (K. pneumo. SK 4200),MIC (E. coli. HH 33779; [1]),MIC (Pseudomonas sp. HH 63),Compound,MIC (E. coli. HH 33779)
0.1 µg/mL,50 µg/mL,0.4 µg/mL,25 µg/mL,0.8 µg/mL,6.3 µg/mL,< 200 µg/mL,"CC(=O)OCC1=C(C(=O)O)N2C(=O)C(NC(=O)CSC(F)(F)F)C2SC1 (stereo not drawn) [I, 7-trifluoromethylmercaptoacetamidocephalosporanic acid]",
0.1 µg/mL,1.6 µg/mL,0.4 µg/mL,25 µg/mL,0.8 µg/mL,1.6 µg/mL,< 200 µg/mL,"Cn1nnnc1SCC1=C(C(=O)O)N2C(=O)C(NC(=O)CSC(F)(F)F)[C@H]2SC1 (stereo partly drawn) [II, 7-Trifluoromethylmercaptoacetamido-3-(1-methyl-tetrazol-5-ylthiomethyl)-3-cephem-4-carboxylic acid]",

Compound,MIC (Strep. pyog. C 203),MIC (Entero. aerogenes),MIC (S. aureus HH 127),MIC (Strep. faecalis HH 34358),MIC (K. pneumo. SK 4200),MIC (E. coli. HH 33779; [1]),MIC (Pseudomonas sp. HH 63),MIC (E. coli. HH 33779)
"Cc1nnc(SCC2=C(C(=O)O)N3C(=O)C(NC(=O)CSC(F)(F)F)[C@H]3SC2)s1 (stereo partly drawn) [III, 7-trifluoromethylmercaptoacetamido-3-(5-methyl-1,3,4-thiadiazol-2-ylthiomethyl)-3-cephem-4-carboxylic acid]",0.1 µg/mL,6.3 µg/mL,0.4 µg/mL,12.5 µg/mL,1.6 µg/mL,,< 200 µg/mL,3.1 µg/mL

# — US3943131A, “Trifluoromethylmercaptoacetamidocephalosporins” (SmithKline Corporation, priority 1974, dated 1976)
